Measurements reported in ChEMBL document CHEMBL1201862, “PubChem BioAssay data set” (2004).
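Briefly, cells in 96-well plates were exposed to five compound concentrations for 48 h, and endpoints were estimated by linear interpolation. GI50 marks 50% less growth.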 Activity calls are given as the source filed them. Cut-off read from the data, not from the text of the source: active = GI50 up to about 1.1 µM and inactive = higher.

Experiments:
Test in all cases: NCI anticancer screen, dose series, 48 h
ACHN = system: ACHN
NCI-H522 = system: NCI-H522
K562 = system: K562
SNB-75 = system: SNB-75
SF-295 = system: SF-295
SW-620 = system: SW-620
OVCAR-5 = system: OVCAR-5
CAKI-1 = system: CAKI-1
SK-MEL-2 = system: SK-MEL-2
HCT-15 = system: HCT-15
NCI-H226 = system: NCI-H226
U-251 = system: U-251
SF-268 = system: SF-268
SK-OV-3 = system: SK-OV-3
NCI-H23 = system: NCI-H23
SNB-19 = system: SNB-19
RXF 393 = system: RXF 393
MDA-MB-435 = system: MDA-MB-435
UACC-62 = system: UACC-62
HT-29 = system: HT-29
CCRF-CEM = system: CCRF-CEM
SR = system: SR
KM12 = system: KM12
SF-539 = system: SF-539
MDA-N = system: MDA-N
NCI-H460 = system: NCI-H460
MOLT-4 = system: MOLT-4
HOP-92 = system: HOP-92
PC-3 = system: PC-3
OVCAR-8 = system: OVCAR-8
786-0 = system: 786-0
HL-60 = system: HL-60
HOP-62 = system: HOP-62
T47D = system: T47D
MDA-MB-231 = system: MDA-MB-231
OVCAR-3 = system: OVCAR-3
UO-31 = system: UO-31
Hs-578T = system: Hs-578T
TK-10 = system: TK-10
UACC-257 = system: UACC-257
RPMI-8226 = system: RPMI-8226
DU-145 = system: DU-145
LOX IMVI = system: LOX IMVI
SK-MEL-28 = system: SK-MEL-28
A549 = system: A549
COLO 205 = system: COLO 205
MCF7 = system: MCF7
HCC 2998 = system: HCC 2998
Malme-3M = system: Malme-3M
M14 = system: M14
NCI/ADR-RES = system: NCI/ADR-RES
OVCAR-4 = system: OVCAR-4
A498 = system: A498
IGROV-1 = system: IGROV-1
EKVX = system: EKVX
SK-MEL-5 = system: SK-MEL-5
SN12C = system: SN12C
HCT-116 = system: HCT-116

## C(#C[C@@]12CCC[C@@H]1NCO2)c1ccc2c(c1)OCO2
ACHN
  GI50: 65 µM (inactive)
NCI-H522
  GI50: 37.3 µM (inactive)
K562
  GI50: 21.9 µM (inactive)
SNB-75
  GI50: 45.1 µM (inactive)
SF-295
  GI50: 50.6 µM (inactive)
SW-620
  GI50: 81.3 µM (inactive)
OVCAR-5
  GI50: > 100 µM (inactive)
CAKI-1
  GI50: 67.1 µM (inactive)
SK-MEL-2
  GI50: > 100 µM (inactive)
HCT-15
  GI50: 54.8 µM
NCI-H226
  GI50: > 100 µM (inactive)
U-251
  GI50: 70.5 µM (inactive)
SF-268
  GI50: 65.2 µM (inactive)
SK-OV-3
  GI50: > 100 µM (inactive)
NCI-H23
  GI50: > 100 µM (inactive)
SNB-19
  GI50: > 100 µM (inactive)
RXF 393
  GI50: 49.3 µM (inactive)
MDA-MB-435
  GI50: 61.1 µM (inactive)
UACC-62
  GI50: 78.3 µM (inactive)
HT-29
  GI50: 32.2 µM (inactive)
CCRF-CEM
  GI50: 42.6 µM (inactive)
SR
  GI50: 36.8 µM (inactive)
KM12
  GI50: 69.7 µM (inactive)
SF-539
  GI50: 29.3 µM (inactive)
MDA-N
  GI50: 61.5 µM (inactive)
NCI-H460
  GI50: 50.9 µM (inactive)
MOLT-4
  GI50: 22.2 µM (inactive)
HOP-92
  GI50: 35 µM (inactive)
PC-3
  GI50: 55.8 µM (inactive)
OVCAR-8
  GI50: 60.8 µM (inactive)
786-0
  GI50: 43.7 µM (inactive)
HL-60
  GI50: 24 µM (inactive)
HOP-62
  GI50: 87.3 µM (inactive)
T47D
  GI50: 58.2 µM (inactive)
MDA-MB-231
  GI50: > 100 µM (inactive)
OVCAR-3
  GI50: 65.6 µM (inactive)
UO-31
  GI50: 30.3 µM (inactive)
Hs-578T
  GI50: 37.8 µM (inactive)
TK-10
  GI50: 73.3 µM (inactive)
UACC-257
  GI50: 44.2 µM (inactive)
RPMI-8226
  GI50: 36.6 µM (inactive)
DU-145
  GI50: > 100 µM (inactive)
LOX IMVI
  GI50: 46.6 µM (inactive)
SK-MEL-28
  GI50: 35.6 µM (inactive)
A549
  GI50: > 100 µM (inactive)
COLO 205
  GI50: 16.9 µM (inactive)
MCF7
  GI50: 57.9 µM (inactive)
HCC 2998
  GI50: 17.6 µM (inactive)
Malme-3M
  GI50: 28.1 µM (inactive)
M14
  GI50: 24.7 µM (inactive)
NCI/ADR-RES
  GI50: 37.5 µM (inactive)
OVCAR-4
  GI50: 85.9 µM (inactive)
A498
  GI50: > 100 µM (inactive)
IGROV-1
  GI50: 45.9 µM (inactive)
EKVX
  GI50: > 100 µM (inactive)
SK-MEL-5
  GI50: 33.3 µM (inactive)

## COc1ccc(/C=C/C(=O)c2ccc(Br)cc2)cc1
ACHN
  GI50: > 100 µM (inactive)
K562
  GI50: > 100 µM (inactive)
SN12C
  GI50: > 100 µM (inactive)
SNB-75
  GI50: 93.5 µM (inactive)
SF-295
  GI50: > 100 µM (inactive)
SW-620
  GI50: > 100 µM (inactive)
OVCAR-5
  GI50: 18.4 µM (inactive)
CAKI-1
  GI50: > 100 µM (inactive)
SK-MEL-2
  GI50: > 100 µM (inactive)
HCT-15
  GI50: > 100 µM
NCI-H226
  GI50: > 100 µM (inactive)
U-251
  GI50: > 100 µM (inactive)
SF-268
  GI50: > 100 µM (inactive)
SK-OV-3
  GI50: > 100 µM (inactive)
HCT-116
  GI50: 80.4 µM (inactive)
NCI-H23
  GI50: 30.6 µM (inactive)
SNB-19
  GI50: > 100 µM (inactive)
MDA-MB-435
  GI50: > 100 µM (inactive)
UACC-62
  GI50: > 100 µM (inactive)
HT-29
  GI50: > 100 µM (inactive)
CCRF-CEM
  GI50: > 100 µM (inactive)
SR
  GI50: 84.1 µM (inactive)
KM12
  GI50: > 100 µM (inactive)
SF-539
  GI50: > 100 µM (inactive)
MDA-N
  GI50: > 100 µM (inactive)
NCI-H460
  GI50: > 100 µM (inactive)
MOLT-4
  GI50: 59.3 µM (inactive)
PC-3
  GI50: > 100 µM (inactive)
OVCAR-8
  GI50: > 100 µM (inactive)
786-0
  GI50: > 100 µM (inactive)
HL-60
  GI50: 66.8 µM (inactive)
HOP-62
  GI50: > 100 µM (inactive)
T47D
  GI50: 42.4 µM (inactive)
MDA-MB-231
  GI50: > 100 µM (inactive)
UO-31
  GI50: 78.7 µM (inactive)
Hs-578T
  GI50: 64.7 µM (inactive)
TK-10
  GI50: > 100 µM (inactive)
UACC-257
  GI50: > 10 µM (inactive)
RPMI-8226
  GI50: 57 µM (inactive)
DU-145
  GI50: > 100 µM (inactive)
SK-MEL-28
  GI50: > 100 µM (inactive)
A549
  GI50: > 100 µM (inactive)
COLO 205
  GI50: > 100 µM (inactive)
MCF7
  GI50: 85.7 µM (inactive)
HCC 2998
  GI50: > 100 µM (inactive)
Malme-3M
  GI50: > 100 µM (inactive)
M14
  GI50: > 100 µM (inactive)
NCI/ADR-RES
  GI50: 52 µM (inactive)
OVCAR-4
  GI50: > 100 µM (inactive)
A498
  GI50: > 100 µM (inactive)
IGROV-1
  GI50: > 100 µM (inactive)
EKVX
  GI50: > 100 µM (inactive)
SK-MEL-5
  GI50: > 100 µM (inactive)
